Measurements as given in US11135224B2, “Methods of sensitizing estrogen receptor positive (ER+) breast cancer cells to endocrine therapy” (New York University, priority 2018, dated 2021).

Tests used:
Format in all cases: cell-based, human
RUNX2 protein = RUNX2 protein immunoblot after CGP57380; details: TamS and TamR cells, treated for 6 hours vs untreated
Protocol: The average of three studies is shown. The immunoblot is representative of three independent studies. […] Equal amounts of RNA were quantified by RT-qPCR and normalized to GAPDH using the −ΔΔCt method. An average of three studies is shown. […] Equal protein amounts were immunoblotted as shown. eEF2 was used as a loading control. […] Cells were treated with DMSO and 1 μM4-OHT and silenced for Runx2 or nonsilencing (NS). The results of three independent experiments are shown. […] Lines represent validated and predicted interactions. […] (**)P<0.01; (***)P<0.001 by t-test.
(§1) Immunoblot Studies: In brief, cells were lysed in NP-40 buffer (50 mM HEPES, pH 7.0, 150 mM NaCl, 2 mM EDTA, 25 mM NaF, 25 mM β-glycerophosphate, 2 mM Na3VO4, 1% IGEPAL, and Complete Mini protease inhibitor cocktail tablet+/−EDTA; Roche) or RIPA lysis buffer (1% Triton X-100, 1% sodium deoxycholate, 0.1% SDS, 150 mM NaCl, 50 mM Tris, pH 7.4, 2 mM Na3VO4, 25 mM β-glycerophosphate, 15 mM NaF, and complete protease inhibitor mix; Roche) and lysate cleared by centrifugation at 13,000 rpm for 10 minutes at 4° C. Lysate protein concentration was determined for each sample using BCA assay. […] Quantitation was performed by determination of the integrated density of the bands using ImageJ software.
The biological functions of mRNAs identified as highly eIF4E-dependent in tamoxifen-resistant cells were next assessed. […]

[1] = test system: ATF2 phosphorylation at Thr69/71 (target of RSK, JNK1, p38 MAPK) and eIF4B S422 (target of RSKs); assay: Immunoblot of ATF2 and eIF4B phosphorylation in TamR cells; details: 10 μM for 6 hours
Protocol: (§2) Hsp70 (loading control). […] Cells were treated with DMSO, 1 μM 4-OH Tam, 4-OH Tam and CGP 57380 (10 μM), or 1 μM 4-OH Tam, CGP57380, and 20 nM RAD001 therapies 24 hours after plating. Treatment was changed every 72 hours. Colonies were scored after 10 days counting only >50 cells/colony. Results are representative of three independent experiments. SEM is shown. […] Results from three independent experiments. Error bars represent SEM (n.s.=not significant). […] Equal amounts of RNA were resolved by sucrose gradient centrifugation and ribosome profiles monitored by UV absorbance 254 nm. Results are representative images of two independent experiments.
as §1, with “software. […]” for “software.”

[2] = test system: global protein synthesis in TamS and TamR cells; assay: [35S]-methionine metabolic labeling, overall protein synthesis; details: 10 μM for 24 hours, [35S]-methionine labeling 30 minutes
Protocol: as §2
^35S-Methionine Metabolic Protein Labeling: Global protein synthesis was measured as previously described (Ramirez-Valle et al., “eIF4GI Links Nutrient Sensing by mTOR to Cell Proliferation and Inhibition of Autophagy,” J. Cell Biol. 181(2):293-307 (2008), which is incorporated herein by reference in its entirety). Cells (2×10^5) were seeded, in triplicate, into 6-well culture plates and allowed to adhere for 48-72 hours. Cells were labeled with 25 μCi ^355-methionine/cysteine protein labeling mix (PerkinElmer) for 30 minutes at 37° C. using DMEM without L-Methionine or L-Cysteine supplemented with 5% FBS. […] Protein concentration was measured by the BCA assay (Thermo Scientific). […]

SMILES: Nc1ncnc2n[nH]c(Nc3ccc(F)cc3)c12 [CGP57380]
- RUNX2 protein levels (RUNX2 protein): reduced more than threefold
- phosphorylation of ATF2 Thr69/71 and eIF4B S422 [1]: no change in phosphorylation
- reduction in global protein synthesis [2]: 10%
